Laboratory results published in patent US20260217708A1, “FUSED BENZAZEPINE DERIVATIVES FOR USE IN THE TREATMENT OF CANCER AND EPILEPSY” (UCB BIOPHARMA SRL, priority 2023, published 2026).

What was measured:
system Xc^− [1] = biological target: T1, system Xc^− (Homo sapiens, UniProt Q9UPY5); experiment: [^14C]L-Cystine uptake assay; type: cell-based; design: endogenous in cells; host or cells: H4 cells; conditions: H4 cells, sodium-free HEPES buffer, 0.5 μM L-[14C]Cystine and 4.5 μM L-Cystine, 1 hour at 37° C.; for IC50: read-out: pIC50 [^14C] L-Cystine uptake assay (converted)
T1 sequence (Q9UPY5 1-501): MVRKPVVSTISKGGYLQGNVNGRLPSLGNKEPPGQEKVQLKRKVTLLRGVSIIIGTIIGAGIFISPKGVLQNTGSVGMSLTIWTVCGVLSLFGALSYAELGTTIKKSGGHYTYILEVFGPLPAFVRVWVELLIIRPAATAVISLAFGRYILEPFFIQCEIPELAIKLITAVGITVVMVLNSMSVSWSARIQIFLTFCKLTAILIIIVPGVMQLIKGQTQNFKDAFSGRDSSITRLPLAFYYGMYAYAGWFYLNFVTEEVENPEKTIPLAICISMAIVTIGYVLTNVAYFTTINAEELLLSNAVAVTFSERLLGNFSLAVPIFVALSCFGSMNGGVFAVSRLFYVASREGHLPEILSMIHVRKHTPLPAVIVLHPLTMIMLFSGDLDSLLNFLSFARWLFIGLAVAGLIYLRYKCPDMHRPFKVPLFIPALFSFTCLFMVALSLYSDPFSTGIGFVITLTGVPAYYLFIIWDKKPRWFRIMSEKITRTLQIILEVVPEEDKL
T1 sequence (P08195 1-529 partner): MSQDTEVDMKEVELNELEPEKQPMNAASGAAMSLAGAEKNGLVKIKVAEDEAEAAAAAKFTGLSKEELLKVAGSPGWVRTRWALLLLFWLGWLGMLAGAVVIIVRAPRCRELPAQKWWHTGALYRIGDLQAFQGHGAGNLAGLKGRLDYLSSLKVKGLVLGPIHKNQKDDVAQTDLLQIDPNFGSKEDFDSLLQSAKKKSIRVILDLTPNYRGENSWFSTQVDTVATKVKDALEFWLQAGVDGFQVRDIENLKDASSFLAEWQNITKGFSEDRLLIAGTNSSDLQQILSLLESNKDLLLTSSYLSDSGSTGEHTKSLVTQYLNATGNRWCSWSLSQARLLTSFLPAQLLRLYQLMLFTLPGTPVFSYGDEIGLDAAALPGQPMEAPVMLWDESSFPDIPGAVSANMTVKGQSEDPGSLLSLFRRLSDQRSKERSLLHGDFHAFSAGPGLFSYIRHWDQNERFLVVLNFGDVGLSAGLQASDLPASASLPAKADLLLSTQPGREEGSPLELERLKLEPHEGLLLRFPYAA
Text: (§1) The effect of compounds of Formula (I) on the system Xc^− functionality was examined in two independent cell assays: (i) measurement of cystine-induced glutamate release; and (ii) measurement of [^14C]L-Cystine uptake.
(§2) As described above, System Xc^−, also known as the cystine/glutamate antiporter, is an amino acid transporter that mediates the extrusion of intracellular L-glutamate outside the cell and the uptake of extracellular L-cystine into the cell.
(§3) By measuring respectively, the concentration of glutamate released outside the cell and the L-cystine uptaken in the cell, with increasing concentrations of compounds of formula (I) according to the present invention, the efficacy of said compounds to inhibit the System Xc^− function can be evaluated.
(§4) The efficacy of the compounds to inhibit system Xc^− is represented by measuring the IC50 which corresponds to the concentration of compound necessary to inhibit 50% of the signals from the two control groups; DMSO 1% and Erastin 50 μM in the respective assays. pIC50 values correspond to −log of the IC50 in Molar.
In this assay, the medium is devoid of sodium to prevent the transport of glutamate by sodium-dependent excitatory amino acid transporters (EAATs). H4 cells were plated on a 96-well CytoStar-T scintillating microplate (PerkinElmer) at 5×10^4 cells/well in the medium described above. After 1 day, cells were washed one time with the sodium-free HEPES buffer and preincubated with test compounds of Formula (I) (1% final DMSO) for 15 min. Uptake was initiated by adding 0.5 μM L-[1,2, 1′,2′-^14C]Cystine (0.02 mCi/mL, PerkinElmer, Waltham, US) and 4.5 μM L-Cystine (Sigma-Aldrich). After 1 hour at 37° C., plates were counted in a MicroBeta^2 microplate counter (PerkinElmer).

system Xc^− [2] = biological target: T1, system Xc^−; experiment: Cystine-induced glutamate release assay; type: cell-based; design: endogenous in cells; host or cells: H4 cells; conditions: H4 cells, sodium-free HEPES buffer, 50 μM L-Cystine, 2 hours, Amplex Red glutamate readout; for IC50: read-out: pIC50 Cystine-induced glutamate release assay (converted)
Text: as §1, §2, §3, §4
Measurement of cystine-induced glutamate release indicates levels of glutamate (outside of the cell) that are dependent on system Xc^− antiporter function. Upon the addition of L-Cystine to H4 cells, intracellular glutamate is counter-transported and exported in the supernatant.
In this assay, the medium is devoid of sodium to prevent the transport of glutamate by sodium-dependent excitatory amino acid transporters (EAATs). H4 cells were plated on 384-well culture plate at 1×10^4 cells/well in Dulbecco's Modified Eagle Medium (DMEM) with L-glutamine, penicillin/streptomycin and 10% fetal bovine serum (all from ThermoFisher Scientific) and incubated in a humidified CO2 incubator at 37° C. After 2 days, cells were washed 4 times with prewarmed sodium-free HEPES buffer (contents in mM: HEPES 10, KCl 5.4, CaCl2 2.5, MgCl2 1, KH2PO4 0.4, D-Glucose 5, Choline chloride 140), pH 7.4. Glutamate release was induced by addition of 50 μM of L-Cystine (Sigma-Aldrich), together with a test compound of Formula (I) at 1% final DMSO concentration. After 2 hours of incubation in the culture incubator, supernatants were transferred to a low-binding polypropylene 384-well plate to determine L-glutamate concentration using Amplex™ Red Glutamic Acid Assay Kit (ThermoFisher Scientific). Briefly, 10 μL of Amplex™ Red working solution was added to 10 μL of the supernatant, then the mixture was incubated for 30 min at 37° C. Fluorescence intensity was measured by EnVision microplate reader (PerkinElmer).

Row | SMILES | IC50 (system Xc^− [1]) | IC50 (system Xc^− [2]) | pIC50 [^14C] L-Cystine uptake assay (system Xc^− [1]) | pIC50 Cystine-induced glutamate release assay (system Xc^− [2])
1 | CCn1c(C)cc2c(c1=O)-c1cccnc1[C@@H](C)C(=O)N2CC(=O)Nc1ccc(Cl)c(F)c1 (single isomer, unassigned) [#176, Enantiomer (10R) or (10S) of N-(4-chloro-3-fluoro-phenyl)-2-[4-ethyl-5,10-dimethyl-3,9-dioxo-4,8,12-triazatricyclo[9.4.0.0^2,7]pentadeca-1(15),2(7),5,11,13-pentaen-8-yl]acetamide] | < 15.8 nM | < 15.8 nM | – | –
2 | Cc1cc2c(c(=O)n1C)-c1cccnc1[C@@H](C)C(=O)N2CC(=O)Nc1ccc(C(F)F)cc1 (single isomer, unassigned) [#177, Enantiomer (10R) or (10S) of N-[4-(difluoromethyl)phenyl]-2-[4,5,10-trimethyl-3,9-dioxo-4,8,12-triazatricyclo[9.4.0.0^2,7]pentadeca-1(11),2(7),5,12,14-pentaen-8-yl]acetamide] | < 15.8 nM | < 15.8 nM | – | –
3 | Cc1cc2c(c(=O)n1C)-c1cccnc1[C@@H](C)C(=O)N2CC(=O)Nc1ccc(C(F)(F)F)cc1 (single isomer, unassigned) [#178, Enantiomer (10R) or (10S) of N-[4-(trifluoromethyl)phenyl]-2-[4,5,10-trimethyl-3,9-dioxo-4,8,12-triazatricyclo[9.4.0.0^2,7]pentadeca-1(15),2(7),5,11,13-pentaen-8-yl]acetamide] | < 15.8 nM | < 15.8 nM | – | –
4 | CC1C(=O)N(CC(=O)Nc2ccc(C(F)(F)F)cc2)c2cn(C)c(=O)c(F)c2-c2cccnc21 (single isomer, unassigned) [#184, enantiomer (10R) or (10S) of 2-(3-fluoro-5,10-dimethyl-4,9-dioxo-5,8,12-triazatricyclo[9.4.0.0^2,7]pentadeca-1(11),2,6,12,14-pentaen-8-yl)-N-[4-(trifluoromethyl)phenyl]acetamide] | < 15.8 nM | 15.8 to 39.8 nM | – | –
5 | Cc1cc2c(cn1)-c1ccnn1C(C)C(=O)N2CC(=O)Nc1ccc(Cl)c(F)c1 (single isomer, unassigned) [#186, enantiomer (7S) or (7R) of N-(4-chloro-3-fluoro-phenyl)-2-[7,12-dimethyl-8-oxo-5,6,9,13-tetrazatricyclo[8.4.0.0^2,6]tetradeca-1(10),2,4,11,13-pentaen-9-yl]acetamide] | 39.8 to 100 nM | 15.8 to 39.8 nM | – | –
6 | CC1C(=O)N(CC(=O)Nc2ccc(C(F)(F)F)cc2)c2ccnc(F)c2-c2cccnc21 (single isomer, unassigned) [#187, enantiomer (10R) or (10S) of 2-[3-fluoro-10-methyl-9-oxo-4,8,12-triazatricyclo[9.4.0.0^2,7]pentadeca-1(11),2(7),3,5,12,14-hexaen-8-yl]-N-[4-(trifluoromethyl)phenyl]acetamide] | 15.8 to 39.8 nM | 39.8 to 100 nM | – | –
7 | Cc1cc2c(c(Cl)n1)-c1cccnc1C(F)C(=O)N2CC(=O)Nc1ccc(C(F)(F)F)cc1 (single isomer, unassigned) [#188, enantiomer (10R) or (10S) of 2-[3-chloro-10-fluoro-5-methyl-9-oxo-4,8,12-triazatricyclo[9.4.0.0^2,7]pentadeca-1(11),2(7),3,5,12,14-hexaen-8-yl]-N-[4-(trifluoromethyl)phenyl]acetamide] | < 15.8 nM | < 15.8 nM | – | –
8 | Cc1cc2c(c(Cl)n1)-c1ccccc1CC(=O)N2CC(=O)Nc1ccc(C(F)(F)F)cc1 (single isomer, unassigned) [#189, Atropisomer aR or aS of 2-(1-chloro-3-methyl-6-oxo-7H-pyrido[4,3-d][3]benzazepin-5-yl)-N-[4-(trifluoromethyl)phenyl]acetamide] | – | – | D (plC50 > about 7.80) | D (plC50 > about 7.80)
9 | Cc1cc2c(c(Cl)n1)-c1ccccc1CC(=O)N2CC(=O)Nc1ccc(C(F)(F)F)cc1 (single isomer, unassigned) [#190, Atropisomer aS or aR of 2-(1-chloro-3-methyl-6-oxo-7H-pyrido[4,3-d][3]benzazepin-5-yl)-N-[4-(trifluoromethyl)phenyl]acetamide] | – | – | B (about 7.00 < pIC50 ≤ about 7.40) | A (about 6.3 ≤ pIC50 ≤ about 7.00)
10 | Cc1cc2c(c(F)n1)-c1cccnc1[C@H](C)C(=O)N2CC(=O)Nc1ccc(C(F)(F)F)cc1 (single isomer, unassigned) [#191] | 39.8 to 100 nM | 100 to 501 nM | – | –
11 | Cc1cc2c(c(F)n1)-c1cccnc1[C@@H](C)C(=O)N2CC(=O)Nc1ccc(C(F)(F)F)cc1 (single isomer, unassigned) [#192] | < 15.8 nM | < 15.8 nM | – | –
12 | O=C(CN1C(=O)Cc2cc(F)ccc2-c2c1ccnc2Cl)Nc1ccc(C(F)(F)F)cc1 (single isomer, unassigned) [#193, Atropisomer aR or aS of 2-(1-chloro-9-fluoro-6-oxo-7H-pyrido[4,3-d][3]benzazepin-5-yl)-N-[4-(trifluoromethyl)phenyl]acetamide] | – | – | D (plC50 > about 7.80) | C (about 7.40 < pIC50 ≤ about 7.80)
13 | Cc1cc2c(c(C(F)F)n1)-c1ccccc1CC(=O)N2CC(=O)Nc1ccc(C(F)(F)F)cc1 (single isomer, unassigned) [#194, Atropisomer aR or aS of 2-[1-(difluoromethyl)-3-methyl-6-oxo-7H-pyrido[4,3-d][3]benzazepin-5-yl]-N-[4-(trifluoromethyl)phenyl]acetamide] | – | – | D (plC50 > about 7.80) | C (about 7.40 < pIC50 ≤ about 7.80)
14 | Cc1cc2c(c(F)n1)-c1cccnc1[C@@H](F)C(=O)N2CC(=O)Nc1ccc(C(F)(F)F)cc1 (single isomer, unassigned) [#195, Enantiomer (10R) or (10S) of 2-(3,10-difluoro-5-methyl-9-oxo-4,8,12-triazatricyclo[9.4.0.0^2,7]pentadeca-1(11),2(7),3,5,12,14-hexaen-8-yl)-N-[4-(trifluoromethyl)phenyl]acetamide] | < 15.8 nM | < 15.8 nM | – | –
